≈ marks a conversion by molar mass, not a printed value. Where “and” joins values, the source holds several entries; their conditions need not be identical. Equal entries are not always repeated. Where two headings read alike, the source gives them in different places.
Tests used:
[1] = system: L. donovani strain MHOM/ET/67/L82; assay: Activity against L. donovani axenic amastigotes (Alamar Blue); format: cell-based
Protocol: For all the susceptibility assays with parasites and cells, each drug was tested in duplicate and each assay was repeated at least once. • a. Activity against Trypanosoma brucei rhodesiense STIB900. This stock was isolated in 1982 from a human patient in Tanzania and after several mouse passages cloned and adapted to axenic culture conditions (Baltz et al 1985) Minimum Essential Medium (50 µl) supplemented with 25 mM HEPES, 1g/l additional glucose, 1% MEM non-essential amino acids (100x), 0.2 mM 2-mercaptoethanol, 1 mM Na-pyruvate and 15% heat inactivated horse serum was added to each well of a 96-well microtiter plate. Serial drug dilutions of eleven 3-fold dilution steps covering a range from 100 to 0.002 µg/ml were prepared. Then 4x10^3 bloodstream forms of T. b. rhodesiense STIB 900 in 50 µl was added to each well and the plate incubated at 37 °C under a 5 % CO2 atmosphere for 70 h. 10 µl Alamar Blue (resazurin, 12.5 mg in 100 ml double-distilled water) was then added to each well and incubation continued for a further 2-4 h (Raz et al 1997). Then the plates were read with a Spectramax Gemini XS microplate fluorometer (Molecular Devices Cooperation, Sunnyvale, CA, USA) using an excitation wave length of 536 nm and an emission wave length of 588 nm. The IC50 values were calculated by linear regression (Huber 1993) from the sigmoidal dose inhibition curves using SoftmaxPro software (Molecular Devices Cooperation, Sunnyvale, CA, USA). Melarsoprol (Arsobal Sanofi-Aventis, received from WHO) is used as control. • b. Activity against T. cruzi. Rat skeletal myoblasts (L-6 cells) were seeded in 96-well microtitre plates at 2000 cells/well in 100 µL RPMI 1640 medium with 10% FBS and 2 mM I-glutamine. After 24 h the medium was removed and replaced by 100 µl per well containing 5000 trypomastigote forms of T. cruzi Tulahuen strain C2C4 containing the β-galactosidase (Lac Z) gene (Buckner et al. 1996). After 48 h the medium was removed from the wells and replaced by 100 µl fresh medium with or without a serial drug dilution of eleven 3-fold dilution steps covering a range from 100 to 0.002 µg/ml. After 96 h of incubation the plates were inspected under an inverted microscope to assure growth of the controls and sterility. Then the substrate CPRG/Nonidet (50 µl) was added to all wells. A color reaction developed within 2-6 h and could be read photometrically at 540 nm. Data were analyzed with the graphic programme Softmax Pro (Molecular Devices), which calculated IC50 values by linear regression (Huber 1993) from the sigmoidal dose inhibition curves. […] Activity against L. donovani axenic amastigotes. Amastigotes of L. donovani strain MHOM/ET/67/L82 were grown in axenic culture at 37 °C in SM medium (Cunnigham et al. 1977) at pH 5.4 supplemented with 10% heat-inactivated fetal bovine serum under an atmosphere of 5% CO2 in air. One hundred microlitres of culture medium with 10^5 amastigotes from axenic culture with or without a serial drug dilution were seeded in 96-well microtitre plates. Serial drug dilutions of eleven 3-fold dilution steps covering a range from 90 to 0.002 µg/ml were prepared. After 70 h of incubation the plates were inspected under an inverted microscope to assure growth of the controls and sterile conditions. 10 µl of Alamar Blue (12.5 mg resazurin dissolved in 100 ml distilled water) (Mikus and Steverdig. 2000) were then added to each well and the plates incubated for another 2 h. Then the plates were read with a Spectramax Gemini XS microplate fluorometer (Molecular Devices Cooperation, Sunnyvale, CA, USA) using an excitation wave length of 536 nm and an emission wave length of 588 nm. Data were analyzed using the software Softmax Pro (Molecular Devices Cooperation, Sunnyvale, CA, USA). Decrease of fluorescence (= inhibition) was expressed as percentage of the fluorescence of control cultures and plotted against the drug concentrations. From the sigmoidal inhibition curves the IC50 values were calculated. • d.

[2] = target: T1, Cathepsin B (human) (Homo sapiens, UniProt P07858); assay: Protease assay, fluorogenic substrate Z-Phe-Arg-AMC: Cathepsin B; format: biochemical; conditions: CB=CathepsinB; for IC50: 25 °C, pH 6.5, 100 µM substrate, read-out: CBIC50micM
T1 construct: Cathepsin B (human liver) Calbiochem; purchased Calbiochem; host or cells: human liver (tissue-derived)
From the text: (§1) 2.1.1. Protease Assays as shown in tables 1 and 2: Cathepsin L (human), Cathepsin B (human), Rhodesain (Trypanosoma brucei rhodesiense), Falcipain 2 (Plasmodium falciparum)
(§2) Enzyme assays used to identify inhibitors of the target cysteine proteases. The effect is detected measuring fluorescence increase due to hydrolysis of fluorogenic substrates by the target enzymes in absence and presence of potential inhibitors.
(§3) • a. Proteins (enzymes): • Cathepsin L (human liver) Calbiochem • Cathepsin B (human liver) Calbiochem • Rhodesain: recombinantly expressed according to ref.: Caffrey, C. R.; Hansell, E.; Lucas, K. D.; Brinen, L. S.; Hernandez, A. A.; Cheng, J.; Gwaltney, S. L., II; Roush, W. R.; Stierhof, Y. D.; Bogyo, M.; Steverding, D.; McKerrow, J. H. Active site mapping, biochemical properties and subcellular localization of rhodesain, the major cysteine protease of Trypanosoma • Falcipain 2: recombinantly expressed according to ref.: Pandey, K. C.; Wang, S. X.; Sijwali, P. S.; Lau, A. L.; McKerrow, J. H.; Rosenthal, P. J. The Plasmodium falciparum cysteine protease falcipain-2 captures its substrate, hemoglobin, via a unique motif. Proc. Natl. Acad. Sci. U.S.A. 2005, 102, 9138-9143. • b. Buffers: • Cathepsin B: 50 mM Tris-Puffer pH 6.5 mit 2 mM DTT, 5 mM EDTA, 200 mM NaCl, 0.005% Brij35 • Cathepsin L: 50 mM Tris-Puffer pH 6.5 mit 2 mM DTT, 5 mM EDTA, 200 mM NaCl, 0.005% Brij35 • Rhodesain: 50 mM Acetat-Puffer pH 5.5 mit 5 mM DTT, 5 mM EDTA, 200 mM NaCl, 0.005% Brij35 • Falcipain 2: 50 mM Acetat-Puffer pH 5.5 mit 5 mM DTT, 5 mM EDTA, 200 mM NaCl, 0.005% Brij35 • c. Substrates: • Cathepsin L: 6,25 µM Z-Phe-Arg-7-amino-4-methylcumarin, HCl von Bachem, Ex 380 nm, Em 460 nm • Cathepsin B: 100 µM Z-Phe-Arg-7-amino-4-methylcumarin, HCl von Bachem, Ex 380 nm, Em 460 nm • Rhodesain: 10µM Z-Phe-Arg-7-amino-4-methylcumarin, HCl von Bachem, Ex 380 nm, Em 460 nm • Falcipain 2: 25µM Z-Phe-Arg-7-amino-4-methylcumarin, HCl von Bachem, Ex 380 nm, Em 460 nm • Reference substance(s)/positive control(s): E64 • d. Solvent for inhibitors and substrates: DMSO 99,5% (GC) DC4540, Sigma • e. Measurement device: Tecan Fluorescence spectrophotometer infinite F200 Pro • f. Well plates: 96 well plates, Lia-Plate White, Greiner bio-one, flat bottom, high binding • g. Methodology: Substrates and inhibitor stock solutions are prepared in DMSO and diluted with the respective assay buffer (final DMSO concentration: […]). Enzyme stock solutions are diluted with assay buffer to yield a fluorescence increase of dF/min ≈ _20. Total volume: 200 µL (180 µL of assay buffer, 5 µL of enzyme solution, 10 µL of DMSO or inhibitor solution, 5 µL of substrate solution). Assays are started by the addition of substrate solution. Fluorescence increase is detected over a period of 10 - 30 min, depending on time dependent (30 min) or non-time dependent (10 min) inhibition. • h. Temp: 25 °C • i. DATA-[…] • Software: Grafit 5.013 • Ki values are calculated from IC50 values (obtained by the 4-parameter IC50 equation) using the Chen-Prusoff equation: Ki=IC50/(1 + [S]/Km)
(§4) In vitro inhibition of cysteine-proteases cruzain (CR) (Trypanosoma cruzi (T. cruzi)), rhodesain (RD) (T. brucei), cathepsin B (CB), falcipain (FP2) (Plasmodium falciparum) and cathepsin L (CL) was assessed by quantification of the resulting fluorescence emission of the proteolytic breakdown of synthetic compound Z-Phe-Arg-AMC (Bachem). The results of this determination are shown in tables 1 and 2 illustrated above.

[3] = target: T2, Cathepsin L (human) (Homo sapiens, UniProt P07711); assay: Protease assay, fluorogenic substrate Z-Phe-Arg-AMC: Cathepsin L; format: biochemical
T2 construct: Cathepsin L (human liver) Calbiochem; purchased Calbiochem; host or cells: human liver (tissue-derived)
T2 sequence (P07711 114-333): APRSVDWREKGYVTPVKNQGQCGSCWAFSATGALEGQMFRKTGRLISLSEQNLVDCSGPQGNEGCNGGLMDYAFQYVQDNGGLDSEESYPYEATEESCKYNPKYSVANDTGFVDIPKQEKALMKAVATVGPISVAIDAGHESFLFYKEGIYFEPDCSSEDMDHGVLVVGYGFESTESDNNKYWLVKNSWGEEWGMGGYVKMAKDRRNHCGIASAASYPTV
From the text: as §1, §2, §3, §4

[4] = target: T3, Falcipain 2 (Plasmodium falciparum, UniProt Q8I6U4); assay: Protease assay, fluorogenic substrate Z-Phe-Arg-AMC: Falcipain 2; format: biochemical; conditions: FP2=Falcipain2
T3 construct: made in house
T3 sequence (Q8I6U4 244-484): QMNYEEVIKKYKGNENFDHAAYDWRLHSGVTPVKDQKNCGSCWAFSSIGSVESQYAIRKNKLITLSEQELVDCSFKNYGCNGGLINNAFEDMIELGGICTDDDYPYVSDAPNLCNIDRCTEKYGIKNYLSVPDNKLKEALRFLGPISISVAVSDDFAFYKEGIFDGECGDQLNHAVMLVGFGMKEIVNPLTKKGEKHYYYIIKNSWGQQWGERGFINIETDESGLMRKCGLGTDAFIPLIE
From the text: as §1, §2, §3, §4

[5] = target: T4, Rhodesain (Trypanosoma brucei rhodesiense, UniProt Q95PM0); assay: Protease assay, fluorogenic substrate Z-Phe-Arg-AMC: Rhodesain; format: biochemical; conditions: for IC50: RD=Rhodesain, 25 °C, pH 5.5, 10µM substrate
T4 construct: made in house
T4 sequence (Q95PM0 entry or part of it): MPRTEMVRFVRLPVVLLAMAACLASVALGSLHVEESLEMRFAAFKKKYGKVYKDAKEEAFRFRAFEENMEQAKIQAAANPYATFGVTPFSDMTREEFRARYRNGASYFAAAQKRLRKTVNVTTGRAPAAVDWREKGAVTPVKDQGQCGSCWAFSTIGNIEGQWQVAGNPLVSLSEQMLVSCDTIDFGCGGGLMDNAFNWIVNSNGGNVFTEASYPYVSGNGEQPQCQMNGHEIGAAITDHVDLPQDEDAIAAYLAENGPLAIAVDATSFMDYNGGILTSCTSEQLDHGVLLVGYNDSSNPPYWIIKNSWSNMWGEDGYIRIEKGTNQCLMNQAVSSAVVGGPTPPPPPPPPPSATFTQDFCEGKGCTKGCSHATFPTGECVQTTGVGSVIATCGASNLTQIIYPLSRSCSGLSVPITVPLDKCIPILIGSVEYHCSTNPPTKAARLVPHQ
From the text: as §1, §2, §3, §4

[6] = target: cruzain (CR) (Trypanosoma cruzi, UniProt P25779); assay: In vitro inhibition of cruzain, fluorescence of Z-Phe-Arg-AMC breakdown; format: biochemical
Sequence of cruzain (CR) (P25779 123-467): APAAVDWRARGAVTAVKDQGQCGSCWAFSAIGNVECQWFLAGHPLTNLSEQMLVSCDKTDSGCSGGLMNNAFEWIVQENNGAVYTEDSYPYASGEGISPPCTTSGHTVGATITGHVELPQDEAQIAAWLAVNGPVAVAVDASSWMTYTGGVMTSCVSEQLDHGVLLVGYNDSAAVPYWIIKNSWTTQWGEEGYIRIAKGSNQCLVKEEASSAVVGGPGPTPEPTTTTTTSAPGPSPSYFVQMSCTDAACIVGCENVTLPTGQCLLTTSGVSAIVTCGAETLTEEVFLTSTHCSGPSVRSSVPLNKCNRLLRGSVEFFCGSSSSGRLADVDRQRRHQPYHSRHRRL
Protocol: as §2, §4

[7] = read-out: CL(IC50); CL=CathepsinL; 25 °C, pH 6.5, 6,25 µM substrate
[8] = CL=CathepsinL; 25 °C, pH 6.5, 6,25 µM substrate; read-out: CL(IC50)

| Compound | IC50 ([1]; Leishmania donovani, 70 h, pH 5.4, replicate 2, axenic amastigotes, pH 5.4, 70 h, read-out: L.don. ax am IC50 repl2) [µg/mL] | L.don. ax am IC50 mean ([1]; mean of replicates) | L.don. ax am IC50 repl1 ([1]; replicate 1, axenic amastigotes, pH 5.4, 70 h) | CB(K2nd(M-1s-1)) [2] [M⁻¹ s⁻¹] | IC50 [2] [nM] | CL(K2nd(M-1s-1)) ([3]; CL=CathepsinL) [M⁻¹ s⁻¹] | IC50 [3, 7] [nM] | FP2(K2nd(M-1s-1)) [4] | RD(K2nd(M-1s-1)) [5] [M⁻¹ s⁻¹] | IC50 [5] [nM] | CR(K2nd(M-1s-1)) [6] [M⁻¹ s⁻¹] | IC50 [6] [nM] | IC50 [3, 8] [nM] | IC50 ([4]; 25 °C, pH 5.5, 25µM substrate) [nM] |
| --- | --- | --- | --- | --- | --- | --- | --- | --- | --- | --- | --- | --- | --- | --- |
| CCCCCCCCCCCCCCCCOP(=O)([O-])OCC[N+](C)(C)C [Miltefosine, reference compound] | 0.071 (≈ 0.174 µM) | 0,059 micrograms/mL and 1,44 micrograms/mL | 0,046 micrograms/mL and 1,44 micrograms/mL |  |  |  |  |  |  |  |  |  |  |  |
| CCOC(=O)/C=C/C(=O)[C@H](C)NC(=O)[C@H](Cc1ccccc1)NC(=O)OCc1ccccc1 |  |  |  | 4738 | 140 | 197273 | 90 | 28285 M⁻¹ s⁻¹ | 6481 | 590 | 139583 | 290 |  |  |
| CCOC(=O)/C=C/[C@@H](O)[C@H](C)NC(=O)[C@H](Cc1ccccc1)NC(=O)OCc1ccccc1 |  |  |  |  |  | 828 |  | 2,735 M-1s-1 | 10951 | 45100 |  |  | 14300 |  |
| CCOC(=O)/C=C/C(=O)[C@H](CCc1ccccc1)NC(=O)[C@H](CC(C)C)NC(=O)OCc1ccccc1 [drawing 39] |  |  |  | 42393 | 50 | 29885 | 257 | 6035 M⁻¹ s⁻¹ | 116147 | 145 | 60784 | 77 |  |  |
| CCOC(=O)/C=C/C(=O)[C@H](C)NC(=O)[C@H](CC(C)C)NC(=O)OCc1ccccc1 |  |  |  | 85470 | 70 | 9821 | 550 | 12013 M⁻¹ s⁻¹ | 14207 | 800 | 14412 | 630 |  | 1180 |
| CCOC(=O)/C=C/[C@@H](O)[C@H](CCc1ccccc1)NC(=O)[C@H](Cc1ccccc1)NC(=O)OCc1ccccc1 |  |  |  | 772 | 24000 | 1127 |  | 557 M⁻¹ s⁻¹ | 3207 | 9500 |  |  | 13000 |  |
| CCOC(=O)/C=C/C(=O)[C@H](CCc1ccccc1)NC(=O)[C@H](Cc1ccccc1)NC(=O)OCc1ccccc1 [drawing 38] |  |  |  | 45486 | 70 | 45364 |  | 17099 M⁻¹ s⁻¹ | 1274510 | 30.7 |  |  | 50 |  |

Reference: patent publication EP2975033A1, “Improved cysteine-protease inhibitors” (Universitat Jaume I, priority 2014, dated 2016)
